In US12083109B2, “Neurokinin antagonists and uses thereof” (California Institute of Technology, priority 2017, dated 2024):

Tests used:
[1] = Spooren et al., 2005; cited from earlier work
[2] = molecular target: T1, Nk3R (Mus musculus, UniProt P47937); experiment: Tone fear conditioning test (freezing to conditioned tone), osanetant; assay type: in vivo; set-up: from tissue; host or cells: Living mice (wild-type C57Bl6/N males, Charles River); conditions: for SIS-induced persistent (post) freezing to fear-conditioned tone: SIS mice; for acute (and thereby persistent) freezing to conditioned threatening stimulus (tone): osanetant injection into CeA; for SIS-induced persistent freezing to conditioned tone: osanetant microinfusion into dBNSTa, 375 ng per site, 20 min before test
T1 sequence (P47937 1-452): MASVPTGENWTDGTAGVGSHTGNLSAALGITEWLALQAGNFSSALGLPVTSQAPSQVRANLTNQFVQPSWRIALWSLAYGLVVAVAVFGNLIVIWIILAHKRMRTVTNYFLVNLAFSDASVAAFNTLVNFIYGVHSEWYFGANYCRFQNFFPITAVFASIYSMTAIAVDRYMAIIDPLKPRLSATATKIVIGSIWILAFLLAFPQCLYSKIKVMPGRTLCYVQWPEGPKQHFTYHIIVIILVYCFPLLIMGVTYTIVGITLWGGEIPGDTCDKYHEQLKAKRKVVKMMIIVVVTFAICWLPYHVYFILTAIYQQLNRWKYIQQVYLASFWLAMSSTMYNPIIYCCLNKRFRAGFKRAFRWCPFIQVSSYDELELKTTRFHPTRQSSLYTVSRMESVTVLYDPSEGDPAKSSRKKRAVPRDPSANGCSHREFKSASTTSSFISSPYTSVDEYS
Description: The protocol for tone trace fear conditioning was performed as previously described (Cushman et al., 2014; incorporated by reference in its entirety) using fear conditioning boxes previously described in detail (Haubensak et al., 2010; Kunwar et al., 2015; incorporated by reference in their entirety). Briefly, mice were transported in squads of four on a white cart to a novel behavioral testing room containing 4 sound-attenuating fear-conditioning chambers (Med Associates). This “training context” was comprised of flat grid flooring (wired to a shock generator and scrambler for footshock delivery, Med Associates), houselights, and the presence of an internal fan for background noise. Chambers were sprayed with 70% Simple Green solution on the underlying chamber pan to generate a unique contextual scent and chambers were cleaned with 70% EtOH between squads. Trace fear conditioning consisted of a 3 minute baseline period followed by 3 tone-shock trials consisting of a 20 second tone conditional stimulus (CS; 75 dB, 2800 Hz), a 20 second trace interval and a 2 second footshock unconditional stimulus (US; 0.7 mA). The inter-trial interval (ITI) between trials was 60 seconds. Mice remained in the chambers an additional 60 seconds before being transported back to the vivarium. The following day, mice were transported in fresh cardboard boxes to a novel behavioral testing room consisting of 4 distinct fear-conditioning boxes to test for tone fear. The “test context” consisted of the houselights and fan turned off, uneven grid flooring, a 1% acetic acid scent and a black plastic insert used to generate a triangular roof. Testing was performed identical to training with the exception that shocks were omitted from test trials to allow for behavior assessment to the tone. A single shock was administered in the last minute of testing to assess activity burst responding to the shock. This allowed assessment of reactivity to the shock under our various manipulations performed during testing without disrupting fear acquisition by performing manipulations during training. All experimental manipulations and data shown herein were performed during the test phase of fear conditioning (training data not shown). Training and testing context were counterbalanced across mice. Freezing behavior during the baseline period as well as during each tone presentation (“during”) and trace interval (“post”) were assessed as previously described (Zelikowsky et al., 2014; incorporated by reference in its entirety) using automated near-infrared video tracking equipment and computer software (VideoFreeze, Med Associates). Shock reactivity (motion, arbitrary units) was measured during the 2 second shock US as well as the 3 seconds immediately following.
Mice were administered the Nk3R antagonist osanetant (Axon Medchem, Axon 1533) either systemically or intra-brain region. Osanctant was dissolved in saline with 0.1% Tween 20 (vehicle). For systemic administration mice received an intraperitoneal (i.p.) injection (5 mg/kg) 20 minutes prior to behavioral testing. For microinfusions, guide cannulas were removed from mice and replaced with injector cannulas (Plastics One), which protruded 0.5 mm from the tip of the guide cannula. Injectors were attached to 5 μl Hamilton syringes with PE tubing (Plastics One) and mounted on a microinfusion pump (Harvard Apparatus) for controlled infusion of osanetant (0.3 μl vehicle with 375 ng dose per site injected over 6 minutes). For experiments using systemic administration of clozapine-N-oxide (CNO), CNO (Enzo Life Sciences-Biomol, BML-NS105-0005) was dissolved in saline (9 g/L NaCl) and injected (i.p.) at 5 mg/kg for hM4DREADD silencing or 2 mg/kg for hM3DREADD activation 20 minutes prior to behavioral testing. CNO was also administered chronically in drinking water (0.5 mg CNO/100 ml water).

SIS-induced persistent (post) freezing to fear-conditioned tone ([2]; osanetant 5 mg/kg i.p. 20 min before test): blocked
SIS-induced persistent (post) freezing to fear-conditioned tone ([2]; osanetant 5 mg/kg i.p. 20 min before test, listed as Osanetant): attenuated
freezing during presentation of conditioned tone (acute) ([2]; osanetant 5 mg/kg i.p. 20 min before test, between groups): no significant differences
acute (and thereby persistent) freezing to conditioned threatening stimulus (tone) [2]: reduced
acute (and thereby persistent) freezing to conditioned threatening stimulus (tone) ([2]; listed as Osanetant): selectively blocked
persistent responses to conditioned tone ([2]; osanetant microinfusion into DMH): had no effect
SIS-induced persistent freezing to conditioned tone [2]: selectively inhibited
SIS-induced persistent freezing to conditioned tone ([2]; listed as Osanetant): selectively blocked
SMILES: CC(=O)N(C)C1(c2ccccc2)CCN(CCC[C@]2(c3ccc(Cl)c(Cl)c3)CCCN(C(=O)c3ccccc3)C2)CC1 [osanetant, N-(1-{3-[(3R)-1-benzoyl-3-(3,4-dichlorophenyl)piperidin-3-yl]propyl}-4-phenylpiperidin-4-yl)-N-methylacetamide]
blood-brain barrier passage [1]: crosses the blood-brain barrier
